Five compounds from PubChem BioAssay (NCI) can be followed below.

Test systems include NCI-H226 lung; UO-31 renal; KM12 colon; DU-145 prostate; HT29 colon; PC-3 prostate; SR leukemia; U251 CNS; OVCAR-8 ovarian; SK-MEL-28 melanoma.
What all share (experiment): NCI tumour cell line growth inhibition, 48 h

SMILES strings stand for the structures.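 Compound exposure: 48 hours, 5 concentrations, 96-well plates. GI50 marks 50% less growth. TGI: concentration producing complete growth inhibition.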

In the case of `COc1ccc(/C=C2\CN(C(=O)CCN3CCC(=NO)CC3)C/C(=C\c3ccc(OC)cc3)C2=O)cc1`, the GI50 in the test on NCI-H226 lung is 2510 nM; in the test on UO-31 renal, 1590 nM; with KM12 colon it was 1740 nM; in the test with DU-145 prostate, 1900 nM; with HT29 colon it was 2.04 µM; with PC-3 prostate it was 2000 nM. Further, the GI50 in the test on SR leukemia was 616 nM; in the test with U251 CNS it was 1.74 µM; with OVCAR-8 ovarian it was 3.22 µM; in the test on SK-MEL-28 melanoma, 2000 nM. For the same compound, the TGI in the test with NCI-H226 lung worked out at 7.54 µM; in the test on UO-31 renal it was 2940 nM; in the test on KM12 colon it was 3.71 µM; in the test on DU-145 prostate it was 3.67 µM; in the test on HT29 colon it was 4.45 µM; with PC-3 prostate it was 4.74 µM. In addition, the TGI in the test with SR leukemia amounted to 29.1 µM; with U251 CNS, 3.47 µM; with OVCAR-8 ovarian, 16 µM; in the test on SK-MEL-28 melanoma it was 4.17 µM.

Turning to `CC(=O)Oc1ccccc1[C@H]1CC(=O)C[C@H](c2ccccc2OC(C)=O)C12C(=O)c1ccccc1C2=O`, the TGI in the test on NCI-H226 lung is 74 µM; in the test on UO-31 renal, more than 100000 nM; in the test on KM12 colon it was more than 100 µM; in the test on DU-145 prostate, more than 100 µM; in the test on HT29 colon, more than 100 µM; in the test on PC-3 prostate it was more than 100 µM. Further, the TGI in the test with SR leukemia was more than 100 µM; with U251 CNS, more than 100 µM; in the test with OVCAR-8 ovarian, more than 100 µM; in the test with SK-MEL-28 melanoma it was 51.2 µM.

`COc1cc(C2CC(c3cccc(Nc4ccncc4)c3)=NN2c2cc(Cl)cc(Cl)c2)cc(OC)c1OC` (configuration not stated): the GI50 in the test with UO-31 renal was 1440 nM; with KM12 colon, 1650 nM; with DU-145 prostate, 1680 nM; in the test on PC-3 prostate it was 1570 nM; with SR leukemia, 1640 nM; in the test with SK-MEL-28 melanoma, 1760 nM. Moreover, the TGI with UO-31 renal came out at 2790 nM; in the test with KM12 colon, 3.1 µM; with DU-145 prostate, 3.08 µM; in the test with PC-3 prostate it was 3.14 µM; with SR leukemia, 3.72 µM; in the test with SK-MEL-28 melanoma, 3.31 µM.

As to `COc1cc2cc(Oc3ccc(NC(=O)Nc4ccc(F)c(C(F)(F)F)c4)cc3)c(C)nc2cc1OCCN1CCCCC1`, the GI50 with UO-31 renal is 1410 nM; in the test with KM12 colon, 1770 nM; in the test with DU-145 prostate, 1750 nM; in the test on PC-3 prostate it was 1450 nM; in the test on SK-MEL-28 melanoma, 1650 nM. For the same compound, the TGI was 2730 nM with UO-31 renal; 3.3 µM in the test on KM12 colon; 3.2 µM in the test with DU-145 prostate; 3.05 µM in the test on PC-3 prostate; 3.04 µM with SK-MEL-28 melanoma.

For the compound `O=C(c1ccccc1)c1nn(-c2ccc(Cl)cc2)c2nc3nc(-c4ccccc4)cc(=O)n3nc12`, the GI50 is more than 100000 nM in the test with NCI-H226 lung; 25700 nM in the test with UO-31 renal; 31900 nM with KM12 colon; 30700 nM with DU-145 prostate; 33.1 µM with HT29 colon; 39300 nM in the test on PC-3 prostate. Besides, the GI50 was 22900 nM with SR leukemia, 31.5 µM with U251 CNS, 48.3 µM in the test on OVCAR-8 ovarian and 53700 nM with SK-MEL-28 melanoma. The TGI in the test with NCI-H226 lung is more than 100 µM; in the test with UO-31 renal, more than 100000 nM; with KM12 colon, more than 100 µM; in the test on DU-145 prostate it was more than 100 µM; in the test on HT29 colon, more than 100 µM; in the test on PC-3 prostate it was more than 100 µM. The TGI was 57.6 µM in the test with SR leukemia, more than 100 µM with U251 CNS, more than 100 µM with OVCAR-8 ovarian and more than 100 µM in the test with SK-MEL-28 melanoma.
